In BindingDB's records for doi:10.3109/14756366.2012.715286 (Chulalongkorn University, 2013):

Molecular target: T1, Tyrosine-protein phosphatase non-receptor type 1 [1-321] (Homo sapiens, UniProt P18031)
T1 construct: 1-321
T1 sequence (P18031 whole entry): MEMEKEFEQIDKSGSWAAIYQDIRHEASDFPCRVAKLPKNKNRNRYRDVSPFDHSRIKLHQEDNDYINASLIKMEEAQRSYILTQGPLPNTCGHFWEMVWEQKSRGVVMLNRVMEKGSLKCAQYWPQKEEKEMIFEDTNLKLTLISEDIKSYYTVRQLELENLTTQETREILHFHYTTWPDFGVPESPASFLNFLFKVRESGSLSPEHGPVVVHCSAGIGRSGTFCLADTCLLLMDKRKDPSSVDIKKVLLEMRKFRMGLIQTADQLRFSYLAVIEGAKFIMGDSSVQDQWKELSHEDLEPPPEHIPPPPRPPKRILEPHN
Experiment: PTP1B Activity Assay
Conditions: pH 7.5; 37 °C
Method: PTP1B was diluted before the experiment to 1.2 μg/mL in Tris buffer, pH7.6 (10 mM Tris, 1.0 mM EDTA, 3.0 mM DTT, 0.01% w/v NaN3). The tested compounds were dissolved in DMSO. The enzyme reaction buffer was Tris buffer, pH 7.5 (50 mM Tris, 0.15 M NaCl, 3 mM DTT). A typical 10 μL of tested compounds was added to the enzyme solution (50 μL), and the resulting mixture was preincubated at 37°C for 30 min. The enzyme reaction was initiated by the addition of 8 mM p-NPP (40 μL).

| IC50 [µM] | Compound |
| --- | --- |
| 138 | O=C(O)/C=C/c1ccccc1O [(2E)-3-(2-hydroxyphenyl)prop-2-enoic acid] |
| 168 | O=C(O)/C=C/c1ccc(O)cc1 [p-Coumaric Acid] |
